Entries after “also recorded” stand apart in the source; their conditions may differ.
Columns and labels:
[1] = tested on: COX2 protein in human MSC; test: Western blot of intracellular COX2 protein in shear stressed MSCs; type: cell-based; conditions: 10 μM, 8 hours of fluid shear stress
Description: A pilot study was conducted to provide proof of principle that fluid shear stress can be used to condition stem cells, alter gene expression, and enhance functional activities. To exemplify the conditioning activity of shear stress of the type provided by the present system, but on a much smaller analytical scale, force (shear stress) was applied using custom fabricated slides or IBIDI® small-scale microfluidics channel slides obtained from IBIDI, LLC. (Verona, Wis., USA). Human samples were harvested from bone marrow (BM), amniotic fluid (AF), or adipose (AD) tissue, processed for isolation and expansion of hMSC, and stored frozen. Frozen hMSCs were thawed and seeded into T225 cell culture flasks with 50 ml Minimum Essential Medium (MEM-α) (20% FBS, 5% Penicillin/Streptomycin, 5% Glutamine). The media was replaced every 3-4 days. hMSCs were maintained in culture until they were almost 100% confluent. […] The number of live cells present was determined using trypan blue dye exclusion. Live cell counts were determined on a hemacytometer and the cells were resuspended to obtain the desired concentration for each assay (see Table 1). […]
Similarly it was determined utilizing commercially available ELISAs that the media from human MSCs cultures that had been subject to fluid shear stress also contained immunomodulatory proteins, such as prostaglandin E2. […]

[2] = tested on: TNF-α secretion by activated splenocytes; test: TNF-α cytokine suppression assay, MSC co-culture with LPS or PHA-activated splenocytes; type: cell-based, mouse; conditions: 10 μM; for effect on the ability of shear treated MSC to suppress TNF-α production: six MSC donor lines
Excerpt: FIG. 22 illustrates TNF-α cytokine suppression assays that highlight functional enhancement of MSC immunomodulation. Human MSCs preconditioned by mechanical force (15 dyne/cm2 shear stress for 3 hrs) are placed in static co-culture with lipopoly-saccharide (LPS) or phytohaemagglutinin (PHA)-activated splenocytes including macrophages, neutrophils, NK, B, and T cells. […] Lower values correspond to greater anti-inflammatory potency. hBM MSC, human bone marrow MSC; hAF MSC, amniotic fluid MSC (indicated by a “*” in graph); hAD MSC, adipose-derived MSC (indicated by a “^” in graph). P-values calculated by paired t-test, equal variance.
(§1) Similarly it was determined utilizing commercially available ELISAs that the media from human MSCs cultures that had been subject to fluid shear stress also contained immunomodulatory proteins, such as prostaglandin E2. In addition, Western blotting confirmed elevated protein levels (translation) of COX2, TSG6, and IL1RN. Actin protein expression levels, which are constant, were used as a control for baseline protein expression. […] It was also determined that this induction could be abrogated by the addition of 10 uM of the NF-kappaB antagonist BAY11-7085 (FIG. 21). Furthermore by utilizing commercially available ELISAs, it was determined that the media from human MSCs cultures that had been subject to fluid shear stress for as little as 3 hours had immunosuppressive activity, as evidenced by the 10-50% reduction in TNF-α when treated hMSCs were co-cultured with activated immune cells from the spleen (FIG. 22).

human amniotic fluid MSC = test: Priming agents combined with shear stress, anti-inflammatory signaling in hAF MSC; type: cell-based
Description: FIG. 24 illustrates that priming agents complement shear-induced anti-inflammatory signaling. Darkened bars represent treatment combinations that indicate a substantial induction of the pathway by shear stress and cytokines (IFN-γ, 20 ng/ml; TNF-α, 50 ng/ml). In this low-performance human amniotic MSC line, TSG6 was induced by shear stress only. IDO was induced by IFN-γ only. hAF MSC, human amniotic fluid MSC.
as §1

CC(C)(C)c1ccc(S(=O)(=O)/C=C/C#N)cc1 [BAY11-7085]
effect on shear-induced COX2 protein [1]: abrogated; also recorded: reduced
effect on the ability of shear treated MSC to suppress TNF-α production [2]: abrogate the positive effects of shear stress

COc1ccc2c(c1)c(CC(=O)O)c(C)n2C(=O)c1ccc(Cl)cc1 [Indomethacin]
effect on the ability of shear treated MSC to suppress TNF-α production [2]: abrogate the positive effects of shear stress

CS(=O)(=O)Nc1ccc([N+](=O)[O-])cc1OC1CCCCC1 [NS-398]
effect on the ability of shear treated MSC to suppress TNF-α production [2]: abrogate the positive effects of shear stress

CCCCC(C)(C)C(O)C=CC1C(O)CC(=O)C1CC=CCCCC(=O)O (stereo not shown) [dmPGE2, 16,16′-dimethyl prostaglandin E2]
effect of ectopic agent on TNF-α production ([2]; compared with sheared MSCs): reduced TNF-α to levels produced in the presence of sheared MSCs; also recorded: mimics MSC suppression

IFN-γ: cytokine priming agent, 20 ng/ml
induction of COX2 and HMOX1 in sheared MSCs with added priming agent (human amniotic fluid MSC; IFN-γ 20 ng/ml plus shear stress): greater induction
IDO induction (human amniotic fluid MSC; IFN-γ 20 ng/ml, low-performance human amniotic MSC line): induced
